Results as given in patent US20260184702A1, “SYNTHESIS, PHARMACOLOGY AND USE OF NEW WATER-SOLUBLE AND SELECTIVE FMS-LIKE TYROSINE KINASE3 (FLT3) INHIBITORS” (Universität Regensburg, priority 2022, published 2026).
In brackets after ≈: the same amount, converted by molar mass.

Experiments:
[1] = Solubility test by UV-Vis spectroscopy of saturated solutions; assay type: physicochemical; settings: for Solubility Ethanol [g/L] / Solubility Water [g/L]: saturated solution; for Solubility Water [g/L]: ultrapure water
How it was run: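 Solubility was measured by UV-Vis spectroscopy on an Agilent Cary 60 over 800-200 nm, using a scan rate of 300.0 nm/min, a 0.50 nm data interval, 0.10 s averaging time and a 10 mm cuvette. Filtered saturated supernatants were diluted into water:ethanol, read at the long-wave absorbance maximum against a calibration curve of at least 6 concentrations, in triplicate.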

[2] = system: subcutaneous MV4-11 CDX model; settings: female, NOD/SCID, mouse, in vivo, 5 days
[3] = system: EOL-1 (acute myeloid eosinophilic leukemia); settings: Sellmer et al. 2020; cited from earlier work
[4] = system: MOLM-13 (acute myeloid leukemia); settings: Sellmer et al. 2020; cited from earlier work
[5] = system: MONO-MAC-1 (acute monocytic leukemia); settings: Sellmer et al. 2020; cited from earlier work
[6] = system: MONO-MAC-6 (acute monocytic leukemia); settings: Sellmer et al. 2020; cited from earlier work
[7] = system: subcutaneous MV4-11 CDX model; assay: In vivo efficacy study in subcutaneous MV4-11 CDX model in NOD/SCID mice; settings: 50 mg/kg po daily 5 days

CC(C)(C)c1cc(NC(=O)Nc2ccc(-c3cn4c(n3)sc3cc(OCCN5CCOCC5)ccc34)cc2)no1 [Quizartinib, reference compound]
solubility ([1]; DMSO, organic solvent or mixture, solvent DMSO, read-out: Solubility DMSO): 33.2 mg/mL (≈ 59.2 mM)
Solubility Ethanol [g/L] [1]: no or at most very poor solubility
Solubility Ethanol [g/L] ([1]; listed as AC220): Practical
Solubility Water [g/L] [1]: no or at most very poor solubility
Solubility Water [g/L] ([1]; listed as AC220): Practical
study day after which mice had to be sacrificed [2]: 6 days
IC50 [3]: 0.0001 µM
IC50 [4]: 0.007 µM
IC50 [5]: 0.006 µM
IC50 [6]: 0.004 µM
first death(s) (day of study) [7]: 600000 s
number of living subjects, day of study 5 ([7]; 5 mice): 5
number of living subjects, day of study 6 ([7]; 5 mice): 5
number of living subjects, day of study 8 ([7]; 5 mice): 3
number of living subjects, day of study 13 ([7]; 5 mice): 3
number of living subjects, day of study 26 ([7]; 5 mice): 3
number of living subjects, day of study 36 ([7]; 5 mice): 3
